Assay results as given in patent US6649595B2, “Regulation of biological events using novel compounds” (ARIAD Gene Therapeutics, Inc., priority 1995, dated 2003).
Where two headings read alike, the source gives them in different places.

Experiments:
FKBPwt = target: T1, FKBPwt (Homo sapiens, UniProt P62942); test: Competitive fluorescence polarization (FP) binding assay of rapalogs to FKBP; conditions: for fold loss in affinity (cf rapamycin): =IC50/IC50 of rapamycin; for IC50: read-out: FKBPwt FP binding assay IC50
T1 construct: made in house
Experimental: Serial 10-fold dilutions of each analog were prepared in 100% ethanol in glass vials and stored on ice. All other manipulations were performed at room temperature. […] Finally, a probe solution was prepared containing 10 nM AP1491 in 0.1% ethanol/FP buffer, and 100 μl added to each well with mixing.
The plates were stored covered in the dark for approximately 30 min to permit equilibration and then the fluorescence polarization of the sample in each well read on a Jolley FPM-2 FP plate reader (Jolley Consulting and Research, Inc., Grayslake, Ill.) in accordance with the manufacturer's recommendations. The mean polarization (mP units)
for each competitor concentration was usually converted to % total binding by reference to the control values and plotted (y) vs. log molar final concentration of competitor (x). Non-linear least square analysis was used to fit the curve and extract the IC50 using the following equation:
y=M1+(M4−M1)/(1+exp(M2*(M3−x)))
where M3 is the IC50. For incomplete curves the IC50 was determined by interpolation.

[1] = Rapamycin pharmacokinetics in mice; format: in vivo
[2] = system: HT1080 cells expressing M30 / M31 (FRAP-FKBP-Fas) constructs; test: Rapamycin-regulated apoptosis of stably transfected HT1080 cells; format: cell-based, human; conditions: with 50 ng/ml actinomycin D, about 20 hours, alamar blue
Text: (f) Rapamycin-regulated apoptosis of stable transsfected human HT1080 cells in culture XbaI-BamHI fragments from constructs A30 and A31 (d, table 1) were cloned into pCM to generate M30 and M31, constructs that direct the expression of MT5FasSE and MT6FasSE, where M denotes a myristoylation domain (see this example sections A.1. and A.8.) and other abbreviations are as described in d, table 1. EcoRI-BamHI fragments containing these expression cassettes were then cloned into the retroviral vector pSMN3 (Example 7). […] HT1080 cells were infected with viral stock and selected with G418.
The media was removed and replaced with 100 μl of media containing 10% alamar blue dye. Plates were incubated as before, and the extent of cell viability assessed periodically by spectrophotometric determination of OD at 570 nm and 600 nm on a microtiter plate reader. Typically reading was continued until control (untreated) wells are at OD 0.2-0.4 after subtraction of blank.

[3] = system: transfected HT1080 cells (hGH target gene) transplanted into nu/nu mice; test: Rapamycin-dependent production of hGH in mice; format: in vivo
Text: In Vivo Methods: Animals, husbandry, and general procedures. Male nu/nu mice were obtained from Charles River Laboratories (Wilmington, Mass.) and allowed to acclimate for five days prior to experimentation. They were housed under sterile conditions, were allowed free access to sterile food and sterile water throughout the entire experiment, and were handled with sterile techniques throughout.
To transplant transiently transfected cells into mice, 2×10^6 transfected HT1080 cells, were suspended in […] PBS/0.1% BSA/0.1% glucose buffer, and administered into four intramuscular sites (approximately […] per site) on the haunches and flanks of the animals. Control mice received equivalent volume injections of buffer alone.
The accuracy of the dosing solutions was confirmed by HPLC analysis prior to intravenous administration into the tail veins. […] In addition, other control mice, bearing transfected cells, received only the rapamycin vehicle.
Blood was collected by either anesthetizing or sacrificing mice via CO2 inhalation. Anesthetized mice were used to collect […] of blood by cardiac puncture. The mice were revived and allowed to recover for subsequent blood collections. Sacrificed mice were immediately exsanguinated. Blood samples were allowed to clot for 24 hours, at 4° C., and sera were collected following centrifugation at 1000×g for 15 minutes. Serum hGH was measured by the Boehringer Mannheim non-isotopic sandwich ELISA (Cat No. 1 585 878). […] Recommended assay instructions were followed.
Mice were administered transfected HT1080 cells as described above. […] The four remaining doses were given under anesthesia, immediately subsequent to blood collection, at 16, 32, 48, and 64 hours. […] Experimental animals and their control counterparts were each assigned to one of two groups. Each of the two experimental groups and two control groups received identical drug or vehicle treatments, respectively. The groups differed in that blood collection times were alternated between the two groups to reduce the frequency of blood collection for each animal.

T1 sequence (P62942 whole entry): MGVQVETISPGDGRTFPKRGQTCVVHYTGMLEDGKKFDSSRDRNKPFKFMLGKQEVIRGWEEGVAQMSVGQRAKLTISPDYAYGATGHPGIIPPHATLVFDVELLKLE

| Molecule | fold loss in affinity (cf rapamycin) (FKBPwt; C7 rapalogs) | IC50 (FKBPwt; C7 rapalogs) [nM] | also measured |
| --- | --- | --- | --- |
| CCc1ccc([C@@H]2C[C@@H]3CC[C@@H](C)[C@@](O)(O3)C(=O)C(=O)N3CCCC[C@H]3C(=O)O[C@H]([C@H](C)C[C@@H]3CC[C@@H](O)[C@H](OC)C3)CC(=O)[C@H](C)/C=C(\C)[C@@H](O)[C@@H](OC)C(=O)[C@H](C)C[C@H](C)/C=C/C=C/C=C/2C)s1 [Compound 39] | 1.0 | 2.4 | – |
| CO[C@@H]1C[C@H](C[C@@H](C)[C@@H]2CC(=O)[C@H](C)/C=C(\C)[C@@H](O)[C@@H](OC)C(=O)[C@H](C)C[C@H](C)/C=C/C=C/C=C(\C)[C@H](c3ccc(C(C)(C)C)s3)C[C@@H]3CC[C@@H](C)[C@@](O)(O3)C(=O)C(=O)N3CCCC[C@H]3C(=O)O2)CC[C@H]1O [Compound 40] | 1.5 | 3.4 | – |
| CO[C@@H]1C[C@H](C[C@@H](C)[C@@H]2CC(=O)[C@H](C)/C=C(\C)[C@@H](O)[C@@H](OC)C(=O)[C@H](C)C[C@H](C)/C=C/C=C/C=C(\C)[C@@H](c3ccc(C(C)(C)C)s3)C[C@@H]3CC[C@@H](C)[C@@](O)(O3)C(=O)C(=O)N3CCCC[C@H]3C(=O)O2)CC[C@H]1O [Compound 41] | 1.3 | 2.9 | – |
| CO[C@@H]1C[C@H](C[C@@H](C)[C@@H]2CC(=O)[C@H](C)/C=C(\C)[C@@H](O)[C@@H](OC)C(=O)[C@H](C)C[C@H](C)/C=C/C=C/C=C(\C)[C@@H](c3c[nH]c4ccccc34)C[C@@H]3CC[C@@H](C)[C@@](O)(O3)C(=O)C(=O)N3CCCC[C@H]3C(=O)O2)CC[C@H]1O [Compound 44] | 3.3 | 7.8 | – |
| CO[C@@H]1C[C@H](C[C@@H](C)[C@@H]2CC(=O)[C@H](C)/C=C(\C)[C@@H](O)[C@@H](OC)C(=O)[C@H](C)C[C@H](C)/C=C/C=C/C=C(\C)[C@H](c3c[nH]c4ccccc34)C[C@@H]3CC[C@@H](C)[C@@](O)(O3)C(=O)C(=O)N3CCCC[C@H]3C(=O)O2)CC[C@H]1O [Compound 45] | 2.6 | 5.9 | – |
| CO[C@H]1C[C@@H]2CC[C@@H](C)[C@@](O)(O2)C(=O)C(=O)N2CCCC[C@H]2C(=O)O[C@H]([C@H](C)C[C@@H]2CC[C@@H](O)[C@H](OC)C2)CC(=O)[C@H](C)/C=C(\C)[C@@H](O)[C@@H](OC)C(=O)[C@H](C)C[C@H](C)/C=C/C=C/C=C/1C [rapamycin, Rapamycin] | – | – | predicted steady-state trough concentration of rapamycin ([1]; 10.0 mg/kg at 16-hour intervals, after two doses): 1.7 µg/mL; half-life ([1]; nu/nu, mouse, in vivo, mice, intravenous): 4.6 h; survival of stably transfected cells [2]: potently reduced; production of hGH in mice ([3]; 0.01-10.0 mg/kg intravenous, serum 17 hours after dosing): dose-responsive production of hGH; time after treatment at which serum hGH remained detectable ([3]; single 10.0 mg/kg dose): 42 h; time at which serum hGH was observed ([3]; single 10.0 mg/kg dose): within four hours; time of peak serum hGH ([3]; single 10.0 mg/kg dose): eight hours; peak serum hGH level ([3]; single 10.0 mg/kg dose, eight hours): over one hundred times the sensitivity limit of the hGH ELISA |
| apamycin (E and Z)-24-(O-benzyloxime) [Compound 11] | – | – | fold loss in affinity (vs rapamycin) (FKBPwt): 3627; IC50 (FKBPwt): 8340 nM |
